Like-named read-outs stand apart in the source and are kept apart here.
What was measured:
MDA-MB-231 cells = experiment: MTT cytotoxicity assay, MDA-MB-231; type: cell-based, human; details: MTT, 72 h incubation, read-out: IC50 (average ± standard deviation) MDA-MB-231
Description: (§1) L929, MCF-7, and MDA-MB-231 cell lines were cultured in DMEM GlutaMAX media containing 10% heat-inactivated FBS and 1% (v/v) penicillin-streptomycin at 37°C and CO2 (5%). Cytotoxicity was determined using a 3-(4,5-dimethyl 2-thiazolyl)-2,5-diphenyl-2H-tetrazolium bromide (MTT) assay. 100 μL aliquots and approximately 50’000 cells/well were added to each well of flat-bottomed 96-well plates and incubated for 24 h in a humidified chamber at 37°C under saturated air with a 5% CO2 atmosphere. Stock solutions of 10 mM drug compounds were prepared in DMSO and were sequentially diluted with the cell culture buffer to give a final DMSO concentration of 0.5%. The solutions were added to the 96-well plates in 100 μL aliquots and 100 μL of buffer was added as a control to give a final drug compound concentration range of 0 − 100 μM. The plates were incubated for a further 72 h under the same conditions as before. MTT (10 μL, 5 mg/mL in Dulbecco’s phosphate-buffered saline) was added to each well and the plates were incubated for a further 3 h under the same conditions as before. The culture medium was aspirated from each well and the purple formazan crystals, formed by the mitochondrial dehydrogenase activity of vital cells, were dissolved in 100 μL DMSO. The absorbance of the resulting solutions was measured at 570 and 630 nm using a SpectraMax M5e multimode microplate reader and SoftMax Pro software, version 6.2.2. As the absorbance is directly proportional to the number of surviving cells, the percentage of surviving cells was calculated from the absorbance of wells relative to the control. The reported IC50 values are based on the mean from four independent experiments, each comprising three replicates per concentration.

MCF-7 cells = experiment: MTT cytotoxicity assay, MCF-7; type: cell-based, human; details: MTT, 72 h incubation, read-out: IC50 (average ± standard deviation) MCF-7
Description: as §1

L929 cells = experiment: MTT cytotoxicity assay, L929; type: cell-based, mouse; details: MTT, 72 h incubation, read-out: IC50 (average ± standard deviation) L929
Description: as §1, with “Cytotoxicity” for “L929, MCF-7, and MDA-MB-231 cell lines were cultured in DMEM GlutaMAX media containing 10% heat-inactivated FBS and 1% (v/v) penicillin-streptomycin at 37°C and CO2 (5%). Cytotoxicity”, “Stock solutions of 10 mM drug compounds were prepared in DMSO and were sequentially diluted with the cell culture buffer to give a final DMSO concentration of 0.5%. The solutions were added to the 96-well plates in 100 μL aliquots and 100 μL of buffer was added as a control to give a final drug compound concentration range of 0 − 100 μM.” left out

GST P1-1 [1] = target: T1, GST P1-1 (Homo sapiens, UniProt P09211); experiment: Determination of IC50 for GST P1-1 enzyme (dose-response / reconfirmation assay); type: biochemical
T1 construct: purchased Sigma-Aldrich
Description: (§2) Each drug compound was added to the respective well at a volume of 80 nL of 10 mM stock solution in DMSO, yielding a final compound concentration of 10 μM and a final DMSO concentration of 0.1%. Each plate’s first and last two columns were used as negative (no compound added – 80 nL per well of DMSO) and positive (80 nL of EA added with a final concentration of 50 μM) controls, respectively. The Gyger Certus Flex dispenser was set up using a freshly prepared 1 mM of GSH and 20 nM of GST P1-1, pH 7.4, in one syringe and 8 mM CDNB solution in pure ethanol in the other syringe. Into each well 80 μL of GST-GSH solution was dispensed and incubated at 25°C for 20 minutes before the reaction was initiated by the addition of 4 μL of CDNB solution. The plates were incubated for 2 h in the dark at 25°C and then the absorbance was of each well recorded on a BioTek Synergy NEO HTS multimode plate reader (Agilent®) at a wavelength of 340 nm.
The IC50 of the GST P1-1 enzyme was determined for the 80 drug compounds with the highest score in the GST P1-1 screening assay. The assay conditions were used for the screening assay and each drug compound was tested at 8 different concentrations (μM) starting at 30 µM final assay concentration with a half-log dilution and 2 replicates per concentration.

GST P1-1 [2] = target: T1, GST P1-1; experiment: High-throughput GST P1-1 inhibition assay (384-well screen, CDNB/GSH); type: biochemical; details: compound 10 μM; score 0 = negative control (DMSO), 1 = positive control (EA 50 μM); average of duplicate
Description: as §2
The z’factor was calculated for each plate according to Zhang et al.. The Z-factor is a dimensionless, simple statistical characteristic for each HTS assay. This provides a valuable tool for the comparison and assessment of the quality of assays, and can be utilized in assay optimization and validation. For each plate, the concentration of product was normalized by assigning a score of 0 (0%) to the negative control (average of maximal concentration of product measured in the presence of enzyme without any inhibitor) and a score of 1 (100%) was assigned to the positive control (average minimal concentration of product measured in the presence of enzyme with the reference inhibitor, i.e., EA). The experiment was performed in duplicate and the score for each drug compound was calculated as an average ± standard deviation. […] An internal laboratory information management system (LIMS) was used for basic data processing, management, visualization, and statistical hit validation.

[3] = Table 2, rounded values, read-out: IC50 GSTP1 enzymatic reaction
[4] = reconfirmation assay, Table S2, read-out: IC50 GSTP1

T1 sequence (P09211 2-210 limits assumed): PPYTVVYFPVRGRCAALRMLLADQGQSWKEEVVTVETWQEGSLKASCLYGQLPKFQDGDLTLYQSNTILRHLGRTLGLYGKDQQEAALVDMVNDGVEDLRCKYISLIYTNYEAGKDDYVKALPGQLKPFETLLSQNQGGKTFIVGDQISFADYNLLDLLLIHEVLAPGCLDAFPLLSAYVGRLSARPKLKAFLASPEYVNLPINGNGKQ

With `Cc1cc(=O)n(-c2ccccc2)[nH]1` [5-Methyl-2-phenyl-1,2-dihydropyrazol-3-one] the IC50 (MDA-MB-231 cells; Homo sapiens, MDA-MB-231) was > 100 µM, the IC50 (MCF-7 cells; Homo sapiens, MCF7) was > 100 µM and the IC50 (L929 cells; Mus musculus, L929) was > 100 µM. The IC50 (GST P1-1 [1]; [3]) was 800 nM, the “Hill Slope (dose-response curve)” value (GST P1-1 [1]; reconfirmation assay) was 0.8 and the IC50 (GST P1-1 [1]; [4]) was 830 nM.
For `O=C1NC(=O)/C(=C/c2ccc(-c3ccc(F)cc3O)o2)S1` [AS252424], the IC50 (MDA-MB-231 cells) was 91 ± 3 µM, the IC50 (MCF-7 cells) was 38 ± 2 µM and the IC50 (L929 cells) was 24 ± 2 µM. The IC50 (GST P1-1 [1]; [3]) was 600 nM, the “Hill Slope (dose-response curve)” value (GST P1-1 [1]; reconfirmation assay) was 1.95 and the IC50 (GST P1-1 [1]; [4]) was 610 nM. The Score (GST P1-1 [2]) was 0.907.
With `C[C@@H]1Cc2c([nH]c3ccccc23)[C@@H](c2c(F)cc(/C=C/C(=O)O)cc2F)N1CC(C)(C)F` [AZD9496] the IC50 (MDA-MB-231 cells; Homo sapiens, MDA-MB-231) was 47 ± 5 µM, the IC50 (MCF-7 cells; Homo sapiens, MCF7) was 14 ± 1 µM and the IC50 (L929 cells; Mus musculus, L929) was 36 ± 4 µM. The IC50 (GST P1-1 [1]; [3]) was 2100 nM, the “Hill Slope (dose-response curve)” value (GST P1-1 [1]; reconfirmation assay) was 2.23 and the IC50 (GST P1-1 [1]; [4]) was 2050 nM. The Score (GST P1-1 [2]) was 0.806.
`CC(C)c1cc(C(C)C)c(CC(=O)NS(=O)(=O)Oc2c(C(C)C)cccc2C(C)C)c(C(C)C)c1` [Avasimibe] was tested, and the IC50 (MDA-MB-231 cells; Homo sapiens, MDA-MB-231) was 16 ± 1 µM, the IC50 (MCF-7 cells; Homo sapiens, MCF7) was 12 ± 1 µM and the IC50 (L929 cells; Mus musculus, L929) was 13 ± 1 µM. It also gave an IC50 (GST P1-1 [1]; [3]) of 400 nM, an IC50 (GST P1-1 [1]; [4]) of 370 nM and a Score (GST P1-1 [2]) of 0.835.
Compound `O=C(O)c1ccc2cc(-c3ccc(O)c(C45CC6CC(CC(C6)C4)C5)c3)ccc2c1` [CD437] has an IC50 (MDA-MB-231 cells) of 0.74 ± 0.07 µM, an IC50 (MCF-7 cells) of 0.51 ± 0.05 µM and an IC50 (L929 cells) of 0.24 ± 0.03 µM. The IC50 (GST P1-1 [1]; [3]) was 300 nM, the “Hill Slope (dose-response curve)” value (GST P1-1 [1]; reconfirmation assay) was 11.6 and the IC50 (GST P1-1 [1]; [4]) was 320 nM. The Score (GST P1-1 [2]) was 0.939.
Compound `CCCCCCCCCCCC1=C(O)C(=O)C=C(O)C1=O` [Embelin] has an IC50 (MDA-MB-231 cells; Homo sapiens, MDA-MB-231) of 12 ± 1 µM, an IC50 (MCF-7 cells; Homo sapiens, MCF7) of 11 ± 1 µM and an IC50 (L929 cells; Mus musculus, L929) of 14 ± 1 µM. The IC50 (GST P1-1 [1]; [3]) was 600 nM, the “Hill Slope (dose-response curve)” value (GST P1-1 [1]; reconfirmation assay) was 1.46 and the IC50 (GST P1-1 [1]; [4]) was 640 nM. The Score (GST P1-1 [2]) was 0.935.
With `C=C(CC)C(=O)c1ccc(OCC(=O)O)c(Cl)c1Cl` [Ethacrynic acid, EA, Ethacrynic acid] the IC50 (MDA-MB-231 cells; Homo sapiens, MDA-MB-231) was 14 ± 1 µM, the IC50 (MCF-7 cells; Homo sapiens, MCF7) was 13 ± 1 µM and the IC50 (L929 cells; Mus musculus, L929) was > 100 µM.
In the case of `Cl.O=C(O)Cc1cccc(OCCCN(Cc2cccc(C(F)(F)F)c2Cl)CC(c2ccccc2)c2ccccc2)c1` [GW3965 (hydrochloride)], the IC50 (MDA-MB-231 cells) is reported as 54 ± 1 µM, the IC50 (MCF-7 cells) is reported as 25 ± 1 µM and the IC50 (L929 cells) is reported as 24 ± 2 µM. The IC50 (GST P1-1 [1]; [3]) was 400 nM, the “Hill Slope (dose-response curve)” value (GST P1-1 [1]; reconfirmation assay) was 2.48 and the IC50 (GST P1-1 [1]; [4]) was 430 nM. For the same compound, the Score (GST P1-1 [2]) was 1.027.
With `Oc1c(Cl)cc(Cl)c(Cl)c1Cc1c(O)c(Cl)cc(Cl)c1Cl` [Hexachlorophene] the IC50 (MDA-MB-231 cells; Homo sapiens, MDA-MB-231) was 9 ± 1 µM, the IC50 (MCF-7 cells; Homo sapiens, MCF7) was 14 ± 1 µM and the IC50 (L929 cells; Mus musculus, L929) was 11 ± 1 µM. The IC50 (GST P1-1 [1]; [3]) was 400 nM, the “Hill Slope (dose-response curve)” value (GST P1-1 [1]; reconfirmation assay) was 2.2 and the IC50 (GST P1-1 [1]; [4]) was 420 nM. For the same compound, the Score (GST P1-1 [2]) was 1.077.
Work on `Cc1cc(O)c2c(=O)c3c(O)cc(O)c4c5c(O)cc(O)c6c(=O)c7c(O)cc(C)c8c1c2c(c34)c(c78)c65` [Hypericin] yielded an IC50 (MDA-MB-231 cells; Homo sapiens, MDA-MB-231) of 26 ± 3 µM, an IC50 (MCF-7 cells; Homo sapiens, MCF7) of 8 ± 1 µM and an IC50 (L929 cells; Mus musculus, L929) of 19 ± 1 µM. For the same compound, the IC50 (GST P1-1 [1]; [3]) was 100 nM, the “Hill Slope (dose-response curve)” value (GST P1-1 [1]; reconfirmation assay) was 11.6 and the Score (GST P1-1 [2]) was 0.774.
In the case of `O=C(O)[C@]1(Cc2cccc(Nc3nccs3)n2)CC[C@@H](Oc2cccc(Cl)c2F)CC1` [MK-5108], the IC50 (MDA-MB-231 cells; Homo sapiens, MDA-MB-231) is reported as > 100 µM, the IC50 (MCF-7 cells; Homo sapiens, MCF7) is reported as 3.4 ± 0.8 µM and the IC50 (L929 cells; Mus musculus, L929) is reported as 2.2 ± 0.5 µM. The IC50 (GST P1-1 [1]; [3]) was 3200 nM, the “Hill Slope (dose-response curve)” value (GST P1-1 [1]; reconfirmation assay) was 13.6 and the Score (GST P1-1 [2]) was 0.933.
With `CC(C)(C)C(=O)CN1C(=O)[C@H](NC(=O)Nc2cccc(C(=O)O)c2)CN(C2CCCCC2)c2ccccc21` [Nastorazepide] the IC50 (MDA-MB-231 cells) was > 100 µM, the IC50 (MCF-7 cells) was > 100 µM and the IC50 (L929 cells) was > 100 µM. For the same compound, the IC50 (GST P1-1 [1]; [3]) was 3300 nM, the “Hill Slope (dose-response curve)” value (GST P1-1 [1]; reconfirmation assay) was 10.6 and the Score (GST P1-1 [2]) was 0.958.
For `O=C(O)c1ccccc1Nc1ccc(CCc2ccc(Cl)c(Cl)c2)cc1` [PD-118057], the IC50 (MDA-MB-231 cells) was > 100 µM, the IC50 (MCF-7 cells) was 41 ± 4 µM and the IC50 (L929 cells) was > 100 µM. For the same compound, the IC50 (GST P1-1 [1]; [3]) was 300 nM, the “Hill Slope (dose-response curve)” value (GST P1-1 [1]; reconfirmation assay) was 1.8 and the IC50 (GST P1-1 [1]; [4]) was 330 nM. The Score (GST P1-1 [2]) was 0.858.
`C=CC(=O)c1ccc2ccccc2c1` [ZM 449829] gave an IC50 (MDA-MB-231 cells) of 10.3 ± 0.2 µM, an IC50 (MCF-7 cells) of 6.8 ± 0.2 µM and an IC50 (L929 cells) of 8.1 ± 0.4 µM. For the same compound, the IC50 (GST P1-1 [1]; [3]) was 1400 nM and the “Hill Slope (dose-response curve)” value (GST P1-1 [1]; reconfirmation assay) was 1.3.
TC-I-2000 was tested, and the Score (GST P1-1 [2]) was 0.729.
